These results are taken from patent US9540381B2, “Anti-angiogenesis compound, intermediate and use thereof” (Guangzhou KangRui Biological Pharmaceutical Technology Co., …, priority 2013, dated 2017).

Entries after “also recorded” stand apart in the source; their conditions may differ.

In one experiment the target is T1, P38-α (Homo sapiens, UniProt Q16539).
T1 construct: purchased AMPHORA
Put plainly: Inhibition specificity, P38-α. It counts as biochemical. As to conditions: 5000 nM, average of two tests; read-out: Average Inhibition Rate (%) P38-α.

Experiment [1] has as its system corneal angiogenesis. Kind of experiment: Rabbit corneal chemical burn model. Type of experiment: in vivo, white rabbits. As to conditions: 100 uM subconjunctival injection then drops twice a day, 7 days. Here is the method:
This test tested in total 5 white rabbits who were 5-6 month old. After narcotizing, in the center of the cornea, the right eye was treated with a 6 mm diameter of round filter paper which was soaked with 0.1M NaOH, induced for 3 min to produce chemical burn modeling.

The target in the next experiment is T2, FGFR2 (Homo sapiens, UniProt P21802).
T2 construct: purchased CARNA
Kind of experiment: Inhibition specificity, FGFR2. Type of experiment: biochemical. The settings on record: 5000 nM, average of two tests; read-out: Average Inhibition Rate (%) FGFR2.

The next experiment has as its target T3, CDK2 (Homo sapiens, UniProt P24941).
T3 construct: purchased UPSTATE
Put plainly: Inhibition specificity, CDK2. Type of experiment: biochemical. The settings on record: 5000 nM, average of two tests; read-out: Average Inhibition Rate (%) CDK2.

For a further experiment, the target named is T4, AKT2 (Homo sapiens, UniProt P31751).
T4 construct: purchased INVITROGEN
Kind of experiment: Inhibition specificity, AKT2. It counts as biochemical. The settings on record: 5000 nM, average of two tests; read-out: Average Inhibition Rate (%) AKT2.

A further experiment addresses T5, JAK2 (Homo sapiens, UniProt O60674).
T5 construct: purchased INVITROGEN
Kind of experiment: Inhibition specificity, JAK2. Type of experiment: biochemical. As to conditions: 5000 nM, average of two tests; read-out: Average Inhibition Rate (%) JAK2.

For another experiment, the target named is T6, VEGFR2 (Homo sapiens, UniProt P35968).
T6 construct: endogenous in cells; host or cells: primary HUVECs P3-P5
Put plainly: In vitro inhibition test on VEGFR2 in HUVECs (anti-phosphorylated VEGFR2 blot). The settings on record: 10 nM, 100 nM and 1 μM, 50 ng/ml VEGF. It counts as cell-based. Here is the method: The experimental method of detecting the inhibition of the compounds of the present invention on VEGFR2 kinase is as follows:
1) The primary cultured human umbilical vein endothelial cells (HUVECs) P3-P5 were transferred to 6 well plate, 2×10^5 cells per well;
2) compounds 2-1, 2-2 and 2-4 of the present invention (the concentrations are 10 nM, 100 nM and 1 μM for each compound) were added when the cells grow to 70-80%, VEGF was a control, incubation for 30 min;
3) 50 ng/ml VEGF (cell Signaling company, US) was added, stimulating for 10 min;
4) nondenature lysis buffer was added to terminate the reaction, and cell lysis buffer was collected to carry out protein quantification;
5) SDS-PAGE electrophoresis, transfer to nitrocellulose membrane, the membrane was cut off and sealed in phosphate tween buffer, TTBS buffer (Tris-buffered saline 0.01% Tween 20, cell Signaling company, US, PH8.0) formulated from 5% skimmed milk for 2 hours; 6) wash the membrane, seal at 4° C. overnight by use of an anti-phosphorylated VEGFR2 antibody (1:1000 dilution, cell Signaling company, US); 7) on the second day after washing membrane, horse radish peroxidase marked goat anti-rabbit second antibody (cell Signaling company, US) was incubated with the membrane at room temperature for 1 hour; 8) develop with chemiluminescence kit (Millipore company) after washing membrane, and take photos.

The subject of the next experiment is choroidal angiogenesis. Kind of experiment: Laser-induced choroidal angiogenesis (CNV) animal model. It counts as in vivo, c57/BL mice. As to conditions: 1 uM injected into the eye after laser, 5 days. Here is the method:
The […]57/BL (Jax Lab, US), and the experiment is conducted on laser-induced Choroidal Angiogenesis (CNV) animal model. This model is a widely used animal model used for studying the influence of a medicament on CNV development of wet macular degeneration. […] Only the laser points, which were observed as bubble indicating the fracture of Bruch membrane, were considered to be studied. Inject immediately after laser implementation: the right eye was injected 1 uM compound 2-2, and the left eye was injected PBS having the same volume as the medicament as a control. Kill the animal 5 days after injection and obtain the eyeball. After removing the anterior segment, vitreous body and retina, prepare flat mounts of choroid and meanwhile dye with isolectin. Take photos by Zeiss fluorescence microscope system and measure CNV area.

Experiment [2] concerns corneal angiogenesis. Put plainly: Mice corneal chemical burn model. The settings on record: 100 uM subconjunctival injection then drops twice a day, 7 days.

T1 sequence (Q16539 whole entry): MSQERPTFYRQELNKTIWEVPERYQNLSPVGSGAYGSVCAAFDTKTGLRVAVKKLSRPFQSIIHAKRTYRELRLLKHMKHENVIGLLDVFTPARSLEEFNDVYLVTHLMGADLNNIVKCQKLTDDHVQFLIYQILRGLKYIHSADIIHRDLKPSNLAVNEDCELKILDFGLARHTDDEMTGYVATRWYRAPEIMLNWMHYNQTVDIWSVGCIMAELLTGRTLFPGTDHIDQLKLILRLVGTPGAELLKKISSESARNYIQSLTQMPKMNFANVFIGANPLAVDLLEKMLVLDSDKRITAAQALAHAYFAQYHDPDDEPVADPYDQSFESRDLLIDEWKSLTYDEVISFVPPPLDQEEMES
T5 sequence (O60674 whole entry, species assumed): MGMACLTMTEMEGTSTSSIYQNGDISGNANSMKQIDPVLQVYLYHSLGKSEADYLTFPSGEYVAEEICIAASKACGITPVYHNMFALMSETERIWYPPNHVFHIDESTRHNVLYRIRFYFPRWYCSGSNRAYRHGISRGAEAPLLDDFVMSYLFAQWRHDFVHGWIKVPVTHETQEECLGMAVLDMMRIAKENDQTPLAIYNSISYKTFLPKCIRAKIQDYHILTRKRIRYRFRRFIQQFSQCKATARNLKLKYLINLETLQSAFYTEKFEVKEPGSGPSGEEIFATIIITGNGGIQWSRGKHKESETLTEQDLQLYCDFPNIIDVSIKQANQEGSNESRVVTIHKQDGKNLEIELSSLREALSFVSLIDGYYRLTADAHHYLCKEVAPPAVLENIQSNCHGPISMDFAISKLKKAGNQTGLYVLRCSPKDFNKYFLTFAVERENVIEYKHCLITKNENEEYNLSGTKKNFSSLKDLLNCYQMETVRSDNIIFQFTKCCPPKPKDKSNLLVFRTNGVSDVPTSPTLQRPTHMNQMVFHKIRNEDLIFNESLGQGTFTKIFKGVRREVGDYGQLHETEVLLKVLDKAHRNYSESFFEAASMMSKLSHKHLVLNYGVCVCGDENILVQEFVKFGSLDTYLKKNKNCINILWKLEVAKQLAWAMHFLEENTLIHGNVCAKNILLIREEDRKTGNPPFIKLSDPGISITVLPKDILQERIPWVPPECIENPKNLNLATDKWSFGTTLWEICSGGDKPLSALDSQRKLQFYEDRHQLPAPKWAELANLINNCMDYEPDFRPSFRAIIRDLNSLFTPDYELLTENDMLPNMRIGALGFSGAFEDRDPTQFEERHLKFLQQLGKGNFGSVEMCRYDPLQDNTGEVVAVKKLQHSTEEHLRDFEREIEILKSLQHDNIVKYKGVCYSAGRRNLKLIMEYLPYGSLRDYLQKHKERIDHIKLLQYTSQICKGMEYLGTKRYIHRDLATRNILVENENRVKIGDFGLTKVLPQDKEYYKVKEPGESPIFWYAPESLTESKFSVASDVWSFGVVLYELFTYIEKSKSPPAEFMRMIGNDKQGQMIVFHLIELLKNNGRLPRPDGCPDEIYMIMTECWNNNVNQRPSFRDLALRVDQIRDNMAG
T6 sequence (P35968 20-1356): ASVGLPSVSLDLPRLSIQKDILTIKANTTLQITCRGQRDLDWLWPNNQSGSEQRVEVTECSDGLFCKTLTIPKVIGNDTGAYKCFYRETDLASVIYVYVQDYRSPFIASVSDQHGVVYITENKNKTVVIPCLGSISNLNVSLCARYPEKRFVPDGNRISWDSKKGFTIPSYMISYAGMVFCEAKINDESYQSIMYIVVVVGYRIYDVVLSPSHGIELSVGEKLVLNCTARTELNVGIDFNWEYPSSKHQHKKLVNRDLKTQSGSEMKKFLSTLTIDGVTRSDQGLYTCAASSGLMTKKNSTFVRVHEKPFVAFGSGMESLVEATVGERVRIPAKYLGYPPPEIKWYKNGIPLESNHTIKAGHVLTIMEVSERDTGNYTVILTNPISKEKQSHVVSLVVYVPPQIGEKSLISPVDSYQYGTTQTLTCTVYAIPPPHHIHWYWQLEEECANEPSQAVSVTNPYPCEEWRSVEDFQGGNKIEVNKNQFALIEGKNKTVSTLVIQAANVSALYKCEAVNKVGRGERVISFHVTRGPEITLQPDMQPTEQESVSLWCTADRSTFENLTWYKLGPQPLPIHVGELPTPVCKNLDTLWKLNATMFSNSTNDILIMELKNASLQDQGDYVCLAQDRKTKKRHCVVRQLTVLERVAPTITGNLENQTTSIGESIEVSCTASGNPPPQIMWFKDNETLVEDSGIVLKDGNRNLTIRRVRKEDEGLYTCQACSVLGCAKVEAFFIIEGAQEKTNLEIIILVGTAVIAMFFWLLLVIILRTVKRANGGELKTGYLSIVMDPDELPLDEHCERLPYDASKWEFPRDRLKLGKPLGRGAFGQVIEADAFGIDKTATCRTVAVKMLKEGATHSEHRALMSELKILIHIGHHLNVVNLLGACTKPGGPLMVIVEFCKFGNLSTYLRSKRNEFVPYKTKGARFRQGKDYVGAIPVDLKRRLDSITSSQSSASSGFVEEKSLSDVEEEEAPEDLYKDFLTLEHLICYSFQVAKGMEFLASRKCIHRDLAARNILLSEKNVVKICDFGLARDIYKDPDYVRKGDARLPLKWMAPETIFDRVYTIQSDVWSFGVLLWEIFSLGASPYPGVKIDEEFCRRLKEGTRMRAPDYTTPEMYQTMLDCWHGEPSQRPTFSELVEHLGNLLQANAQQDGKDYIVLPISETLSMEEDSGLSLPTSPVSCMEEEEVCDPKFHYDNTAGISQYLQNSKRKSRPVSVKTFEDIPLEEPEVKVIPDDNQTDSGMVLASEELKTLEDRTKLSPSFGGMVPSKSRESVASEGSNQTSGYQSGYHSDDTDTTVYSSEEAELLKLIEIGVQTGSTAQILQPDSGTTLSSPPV
T2 sequence (P21802 22-821, species assumed): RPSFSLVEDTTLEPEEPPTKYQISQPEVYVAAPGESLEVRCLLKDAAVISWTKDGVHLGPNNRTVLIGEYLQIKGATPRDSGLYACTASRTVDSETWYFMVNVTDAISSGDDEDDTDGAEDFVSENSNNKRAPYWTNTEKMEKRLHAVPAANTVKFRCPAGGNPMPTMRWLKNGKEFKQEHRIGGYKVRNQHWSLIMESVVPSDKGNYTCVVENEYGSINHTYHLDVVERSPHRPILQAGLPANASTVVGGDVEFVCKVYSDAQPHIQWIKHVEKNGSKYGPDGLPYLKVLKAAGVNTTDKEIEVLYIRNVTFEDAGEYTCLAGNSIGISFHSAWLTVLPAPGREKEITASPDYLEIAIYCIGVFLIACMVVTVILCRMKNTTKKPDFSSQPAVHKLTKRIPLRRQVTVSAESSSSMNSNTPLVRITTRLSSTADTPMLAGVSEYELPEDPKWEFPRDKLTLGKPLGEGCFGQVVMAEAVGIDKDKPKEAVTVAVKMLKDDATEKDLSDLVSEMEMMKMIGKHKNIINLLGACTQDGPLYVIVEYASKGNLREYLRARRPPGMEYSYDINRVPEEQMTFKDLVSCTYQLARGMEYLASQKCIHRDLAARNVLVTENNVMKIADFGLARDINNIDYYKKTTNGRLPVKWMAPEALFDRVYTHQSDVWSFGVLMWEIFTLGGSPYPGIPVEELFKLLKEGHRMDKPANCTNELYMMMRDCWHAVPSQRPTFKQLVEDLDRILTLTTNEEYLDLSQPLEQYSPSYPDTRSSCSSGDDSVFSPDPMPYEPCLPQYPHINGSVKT
T4 sequence (P31751 whole entry, species assumed): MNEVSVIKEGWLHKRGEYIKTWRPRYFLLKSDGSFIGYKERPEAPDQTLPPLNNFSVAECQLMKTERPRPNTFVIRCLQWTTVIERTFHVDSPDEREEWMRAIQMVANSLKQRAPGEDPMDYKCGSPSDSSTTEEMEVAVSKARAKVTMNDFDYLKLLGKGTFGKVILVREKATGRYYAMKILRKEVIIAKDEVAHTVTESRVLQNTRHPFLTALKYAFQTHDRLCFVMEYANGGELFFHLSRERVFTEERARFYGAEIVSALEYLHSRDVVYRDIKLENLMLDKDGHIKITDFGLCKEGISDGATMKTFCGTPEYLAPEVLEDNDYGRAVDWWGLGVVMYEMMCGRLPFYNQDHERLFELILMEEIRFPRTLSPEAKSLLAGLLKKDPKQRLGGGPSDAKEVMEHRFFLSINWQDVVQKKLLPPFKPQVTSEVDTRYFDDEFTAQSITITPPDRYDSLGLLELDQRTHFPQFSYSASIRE

On to `Nc1cc(Oc2ccc3c(C(=O)Nc4cccc(C(F)(F)F)c4)cccc3n2)ncn1` [Compound 2-1], for which the inhibition (in general, the relative decrease from the control value, in per cent) at 5 µM was 16.9% at P38-α; roughly 36% at FGFR2; 3.75% at CDK2; 1.35% at AKT2; roughly 21% at JAK2. Moreover, the “effect on corneal angiogenesis (in words, FIG. 12)” value with corneal angiogenesis [1] was “obviously reduces corneal angiogenesis”. Moreover, on VEGFR2, the “inhibition of VEGFR2 (in words, FIG. 8)” value was “can inhibit VEGFR2”.

Consider `Nc1nccc(Oc2ccc3c(C(=O)Nc4cccc(C(F)(F)F)c4)cccc3n2)n1` [Compound 2-2], for which the inhibition at 5 µM at P38-α was roughly 80%; at FGFR2 it was greater than 61%; on CDK2 it was 2.02%; at AKT2, -1.2%; on JAK2 it was 7.83%. Further, the “effect on corneal angiogenesis (in words, FIG. 12)” value with corneal angiogenesis [1] is listed as “obviously reduces corneal angiogenesis”. Further, the “inhibition of VEGFR2 (in words, FIG. 8)” value on VEGFR2 is on record as “can inhibit VEGFR2”. In addition, the “inhibition of choroidal angiogenesis (in words, FIG. 9)” value in the experiment on choroidal angiogenesis is “could obviously inhibit the choroidal angiogenesis; also recorded: obviously inhibiting choroidal angiogenesis”. Further, the “effect on corneal angiogenesis and bleeding (in words, FIG. 11)” value with corneal angiogenesis [2] is “obviously reduces angiogenesis and bleeding”.
